Source: US20140031278A1, “Novel Glucagon Analogues” (NOVO NORDISK A/S, priority 2011, published 2014)
*1 amine or outer side, *2 acyl side, *3 side chain or, on linkers, in order; H or OH if unused. Where a SMILES comes first, the peptide text is derived from it. Side-chain parts run from the residue outwards. γGlu = O=C(O)[C@H](CCC(=O)[*:2])N[*:1]; εLys = N[C@@H](CCCCN[*:1])C(=O)[*:2]

Molecular target: T1, glucagon receptor (Homo sapiens, UniProt P47871)
T1 construct: expressed in transfected cells
Assay: Assay (I) Glucagon activity (cAMP biosensor, FLIPR)
Format: cell-based
Conditions: HEK-293 cells with cloned glucagon receptor and cAMP biosensor; end point after 6 minutes
Procedure, shortened: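 HEK-293 cells expressing glucagon receptor with membrane cAMP biosensor (ACTOne), calcium-dye loaded with probenecid and a PDE inhibitor.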

T1 sequence (P47871 26-477): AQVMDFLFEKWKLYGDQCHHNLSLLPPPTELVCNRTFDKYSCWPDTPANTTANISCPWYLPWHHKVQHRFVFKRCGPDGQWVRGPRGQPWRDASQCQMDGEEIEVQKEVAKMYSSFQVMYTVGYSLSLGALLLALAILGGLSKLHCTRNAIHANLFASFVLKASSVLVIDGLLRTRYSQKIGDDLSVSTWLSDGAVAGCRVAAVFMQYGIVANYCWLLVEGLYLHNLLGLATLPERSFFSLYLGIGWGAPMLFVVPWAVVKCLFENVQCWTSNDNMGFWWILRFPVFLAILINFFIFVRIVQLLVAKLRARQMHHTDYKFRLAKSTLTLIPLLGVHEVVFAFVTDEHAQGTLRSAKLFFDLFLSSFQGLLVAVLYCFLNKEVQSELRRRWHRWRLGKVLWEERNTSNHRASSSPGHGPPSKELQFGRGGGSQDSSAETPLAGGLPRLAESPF

Row | EC50 [nM] | Structure (SMILES)
1 | 0.007 | CC(=O)N[C@@H](CCC(=O)N[C@@H](CCC(=O)N[C@@H](CCC(=O)N[C@@H](CCC(=O)NCCCC[C@H](NC(=O)[C@H](CC(C)C)NC(=O)[C@H](CC(C)C)NC(=O)[C@H](Cc1c[nH]c2ccccc12)NC(=O)[C@H](CCC(N)=O)NC(=O)[C@@H](NC(=O)[C@H](Cc1ccccc1)NC(=O)[C@H](CC(=O)O)NC(=O)[C@H](CCC(N)=O)NC(=O)[C@H](C)NC(=O)[C@H](CCCNC(=N)N)NC(=O)[C@H](CCCNC(=N)N)NC(=O)[C@H](CO)NC(=O)[C@H](CC(=O)O)NC(=O)[C@H](CC(C)C)NC(=O)[C@H](Cc1ccc(O)cc1)NC(=O)[C@H](CCCCN)NC(=O)[C@H](CO)NC(=O)[C@H](Cc1ccc(O)cc1)NC(=O)[C@H](CC(=O)O)NC(=O)[C@H](CO)NC(=O)[C@@H](NC(=O)[C@H](Cc1ccccc1)NC(=O)[C@@H](NC(=O)CNC(=O)[C@H](CCC(N)=O)NC(=O)[C@H](CO)NC(=O)[C@@H](N)Cc1c[nH]cn1)[C@@H](C)O)[C@@H](C)O)C(C)C)C(=O)N[C@H](C(=O)O)[C@@H](C)O)C(=O)O)C(=O)O)C(=O)O)C(=O)O [Example 53, N^ε28-[(4S)-4-[[(4S)-4-[[(4S)-4-[[(4S)-4-acetamido-4-carboxybutanoyl]amino]-4-carboxybutanoyl]amino]-4-carboxybutanoyl]amino]-4-carboxybutanoyl]-[Leu^27,Lys^28]-Glucagon]
2 | 0.018 | CC(=O)N[C@@H](CCC(=O)N[C@@H](CCC(=O)N[C@@H](CCC(=O)N[C@@H](CCC(=O)NCCCC[C@H](NC(=O)[C@H](C)NC(=O)[C@H](CCCNC(=N)N)NC(=O)[C@H](CCCNC(=N)N)NC(=O)[C@H](CO)NC(=O)[C@H](CC(=O)O)NC(=O)[C@H](CC(C)C)NC(=O)[C@H](Cc1ccc(O)cc1)NC(=O)[C@H](CCCCN)NC(=O)[C@H](CO)NC(=O)[C@H](Cc1ccc(O)cc1)NC(=O)[C@H](CC(=O)O)NC(=O)[C@H](CO)NC(=O)[C@@H](NC(=O)[C@H](Cc1ccccc1)NC(=O)[C@@H](NC(=O)CNC(=O)[C@H](CCC(N)=O)NC(=O)[C@H](CO)NC(=O)[C@@H](N)Cc1c[nH]cn1)[C@@H](C)O)[C@@H](C)O)C(=O)N[C@@H](CC(=O)O)C(=O)N[C@@H](Cc1ccccc1)C(=O)N[C@H](C(=O)N[C@@H](CCC(N)=O)C(=O)N[C@@H](Cc1c[nH]c2ccccc12)C(=O)N[C@@H](CC(C)C)C(=O)N[C@@H](CC(C)C)C(=O)N[C@@H](CO)C(=O)N[C@H](C(=O)O)[C@@H](C)O)C(C)C)C(=O)O)C(=O)O)C(=O)O)C(=O)O [Example 54, N^ε20-[(4S)-4-[[(4S)-4-[[(4S)-4-[[(4S)-4-acetamido-4-carboxybutanoyl]amino]-4-carboxybutanoyl]amino]-4-carboxybutanoyl]amino]-4-carboxybutanoyl]-[Lys^20,Leu^27,Ser^28]-Glucagon]
3 | 0.051 | CC(=O)N[C@@H](CCC(=O)N[C@@H](CCC(=O)N[C@@H](CCC(=O)N[C@@H](CCC(=O)NCCCC[C@H](NC(=O)[C@@H](NC(=O)[C@H](Cc1ccccc1)NC(=O)[C@H](CC(=O)O)NC(=O)[C@H](CCC(N)=O)NC(=O)[C@H](C)NC(=O)[C@H](CCCNC(=N)N)NC(=O)[C@H](CCCNC(=N)N)NC(=O)[C@H](CC(C)C)NC(=O)[C@H](CC(=O)O)NC(=O)[C@H](CC(C)C)NC(=O)[C@H](Cc1ccc(O)cc1)NC(=O)[C@H](CCCCN)NC(=O)[C@H](CO)NC(=O)[C@H](Cc1ccc(O)cc1)NC(=O)[C@H](CC(=O)O)NC(=O)[C@H](CO)NC(=O)[C@@H](NC(=O)[C@H](Cc1ccccc1)NC(=O)[C@@H](NC(=O)CNC(=O)[C@H](CCC(N)=O)NC(=O)CNC(=O)[C@@H](N)Cc1c[nH]cn1)[C@@H](C)O)[C@@H](C)O)C(C)C)C(=O)N[C@@H](Cc1c[nH]c2ccccc12)C(=O)N[C@@H](CC(C)C)C(=O)N[C@@H](CC(C)C)C(=O)N[C@@H](CO)C(=O)N[C@H](C(=O)O)[C@@H](C)O)C(=O)O)C(=O)O)C(=O)O)C(=O)O [Example 55, N^ε24-[(4S)-4-[[(4S)-4-[[(4S)-4-[[(4S)-4-acetamido-4-carboxybutanoyl]amino]-4-carboxybutanoyl]amino]-4-carboxybutanoyl]amino]-4-carboxybutanoyl]-[Gly^2,Leu^16,Lys^24,Leu^27,Ser^28]-Glucagon] (H-HGQGTFTSDYSKYLDLRRAQDFVK([γGlu-γGlu-γGlu-γGlu-Ac])WLLST-OH)
4 | 0.02 | CC(=O)N[C@@H](CCC(=O)N[C@@H](CCC(=O)N[C@@H](CCC(=O)N[C@@H](CCC(=O)NCCCC[C@H](NC(=O)[C@@H](NC(=O)[C@H](Cc1ccccc1)NC(=O)[C@H](CC(=O)O)NC(=O)[C@H](C)NC(=O)[C@H](C)NC(=O)[C@H](CCCNC(=N)N)NC(=O)[C@H](CCCNC(=N)N)NC(=O)[C@H](CC(C)C)NC(=O)[C@H](CC(=O)O)NC(=O)[C@H](CC(C)C)NC(=O)[C@H](Cc1ccc(O)cc1)NC(=O)[C@H](CCCNC(=N)N)NC(=O)[C@H](CO)NC(=O)[C@H](Cc1ccc(O)cc1)NC(=O)[C@H](CC(=O)O)NC(=O)[C@H](CO)NC(=O)[C@@H](NC(=O)[C@H](Cc1ccccc1)NC(=O)[C@@H](NC(=O)CNC(=O)[C@H](CCC(N)=O)NC(=O)[C@H](CO)NC(=O)[C@@H](N)Cc1c[nH]cn1)[C@@H](C)O)[C@@H](C)O)C(C)C)C(=O)N[C@@H](Cc1c[nH]c2ccccc12)C(=O)N[C@@H](CC(C)C)C(=O)N[C@@H](CC(C)C)C(=O)N[C@@H](CO)C(=O)N[C@H](C(=O)O)[C@@H](C)O)C(=O)O)C(=O)O)C(=O)O)C(=O)O [Example 56, N^ε24-[(4S)-4-[[(4S)-4-[[(4S)-4-[[(4S)-4-acetamido-4-carboxybutanoyl]amino]-4-carboxybutanoyl]amino]-4-carboxybutanoyl]amino]-4-carboxybutanoyl]-[Arg^12,Leu^16,Ala^20,Lys^24,Leu^27,Ser^28]-Glucagon] (H-HSQGTFTSDYSRYLDLRRAADFVK([γGlu-γGlu-γGlu-γGlu-Ac])WLLST-OH)
5 | 0.017 | CC(=O)N[C@@H](CCC(=O)N[C@@H](CCC(=O)N[C@@H](CCC(=O)N[C@@H](CCC(=O)NCCCC[C@H](NC(=O)[C@@H](NC(=O)[C@H](Cc1ccccc1)NC(=O)[C@H](CC(=O)O)NC(=O)[C@H](CCC(=O)O)NC(=O)[C@H](C)NC(=O)[C@H](CCCNC(=N)N)NC(=O)[C@H](CCCNC(=N)N)NC(=O)[C@H](CC(C)C)NC(=O)[C@H](CC(=O)O)NC(=O)[C@H](CC(C)C)NC(=O)[C@H](Cc1ccc(O)cc1)NC(=O)[C@H](CCCNC(=N)N)NC(=O)[C@H](CO)NC(=O)[C@H](Cc1ccc(O)cc1)NC(=O)[C@H](CC(=O)O)NC(=O)[C@H](CO)NC(=O)[C@@H](NC(=O)[C@H](Cc1ccccc1)NC(=O)[C@@H](NC(=O)CNC(=O)[C@H](CCC(N)=O)NC(=O)[C@H](CO)NC(=O)[C@@H](N)Cc1c[nH]cn1)[C@@H](C)O)[C@@H](C)O)C(C)C)C(=O)N[C@@H](Cc1c[nH]c2ccccc12)C(=O)N[C@@H](CC(C)C)C(=O)N[C@@H](CC(C)C)C(=O)N[C@@H](CO)C(=O)N[C@H](C(=O)O)[C@@H](C)O)C(=O)O)C(=O)O)C(=O)O)C(=O)O [Example 57, N^ε24-[(4S)-4-[[(4S)-4-[[(4S)-4-[[(4S)-4-acetamido-4-carboxybutanoyl]amino]-4-carboxybutanoyl]amino]-4-carboxybutanoyl]amino]-4-carboxybutanoyl]-[Arg^12,Leu^16,Glu^20,Lys^24,Leu^27,Ser^28]-Glucagon] (H-HSQGTFTSDYSRYLDLRRAEDFVK([γGlu-γGlu-γGlu-γGlu-Ac])WLLST-OH)
6 | 0.013 | CC(=O)N[C@@H](CCC(=O)N[C@@H](CCC(=O)N[C@@H](CCC(=O)N[C@@H](CCC(=O)NCCCC[C@H](N)C(=O)NCCCC[C@H](NC(=O)[C@H](CC(=O)O)NC(=O)[C@H](CC(C)C)NC(=O)[C@H](Cc1ccc(O)cc1)NC(=O)[C@H](CCCCN)NC(=O)[C@H](CO)NC(=O)[C@H](Cc1ccc(O)cc1)NC(=O)[C@H](CC(=O)O)NC(=O)[C@H](CO)NC(=O)[C@@H](NC(=O)[C@H](Cc1ccccc1)NC(=O)[C@@H](NC(=O)CNC(=O)[C@H](CCC(N)=O)NC(=O)[C@H](CO)NC(=O)[C@@H](N)Cc1c[nH]cn1)[C@@H](C)O)[C@@H](C)O)C(=O)N[C@@H](CCCNC(=N)N)C(=O)N[C@@H](C)C(=O)N[C@@H](C)C(=O)N[C@@H](CCC(N)=O)C(=O)N[C@@H](CC(=O)O)C(=O)N[C@@H](Cc1ccccc1)C(=O)N[C@H](C(=O)N[C@@H](CCC(N)=O)C(=O)N[C@@H](Cc1c[nH]c2ccccc12)C(=O)N[C@@H](CC(C)C)C(=O)N[C@@H](CC(C)C)C(=O)N[C@@H](CO)C(=O)N[C@H](C(N)=O)[C@@H](C)O)C(C)C)C(=O)O)C(=O)O)C(=O)O)C(=O)O [Example 59] (H-HSQGTFTSDYSKYLDK([εLys-γGlu-γGlu-γGlu-γGlu-Ac])RAAQDFVQWLLST-NH2)
7 | 0.052 | CC(=O)N[C@@H](CCC(=O)N[C@@H](CCC(=O)N[C@@H](CCC(=O)N[C@@H](CCC(=O)NCCCC[C@H](NC(=O)[C@@H](NC(=O)[C@H](Cc1ccccc1)NC(=O)[C@H](CC(=O)O)NC(=O)[C@H](C)NC(=O)[C@H](C)NC(=O)[C@H](CCCNC(=N)N)NC(=O)[C@H](CCCNC(=N)N)NC(=O)[C@H](CC(C)C)NC(=O)[C@H](CC(=O)O)NC(=O)[C@H](CC(C)C)NC(=O)[C@H](Cc1ccc(O)cc1)NC(=O)[C@H](CCCCN)NC(=O)[C@H](CO)NC(=O)[C@@H](NC(=O)[C@H](CC(=O)O)NC(=O)[C@H](CO)NC(=O)[C@@H](NC(=O)[C@H](Cc1ccccc1)NC(=O)[C@@H](NC(=O)CNC(=O)[C@H](Cc1c[nH]cn1)NC(=O)[C@H](C)NC(=O)[C@@H](N)Cc1c[nH]cn1)[C@@H](C)O)[C@@H](C)O)C(C)C)C(C)C)C(=O)N[C@@H](Cc1c[nH]c2ccccc12)C(=O)N[C@@H](CC(C)C)C(=O)N[C@@H](CC(C)C)C(=O)N[C@@H](CO)C(=O)N[C@H](C(=O)O)[C@@H](C)O)C(=O)O)C(=O)O)C(=O)O)C(=O)O [Example 62, N^ε24-[(4S)-4-[[(4S)-4-[[(4S)-4-[[(4S)-4-acetamido-4-carboxybutanoyl]amino]-4-carboxybutanoyl]amino]-4-carboxybutanoyl]amino]-4-carboxybutanoyl]-[Ala^2,His^3,Val^10,Leu^16,Ala^20,Lys^24,Leu^27,Ser^28]-Glucagon] (H-HAHGTFTSDVSKYLDLRRAADFVK([γGlu-γGlu-γGlu-γGlu-Ac])WLLST-OH)
